Reference: patent US20240309004A1, “SELECTIVE CYCLIN-DEPENDENT KINASE INHIBITORS AND METHODS OF THERAPEUTIC USE THEREOF” (ViroKyne Therapeutics, LLC, priority 2021, published 2024)
Read-outs that look alike come from different tables or passages of the source.

Experiments:
VZV strain Ellen = assay: VZV primary assay, strain Ellen, HFF cells; format: cell-based, Varicella Zoster Virus
Protocol: (§1) Assays were performed in monolayers as described. […] Toxicity was measured using CTG as above. […] Toxicity was measured using CTG as above.
(§2) Monolayers of HFF cells were prepared in six-well plates and incubated at 37° C. for 2 d to allow the cells to reach confluency. Media was then aspirated from the wells and 0.2 mL of virus-containing solution was added to each of three wells to yield 20-30 plaques in each well. The virus was allowed to adsorb to the cells for 1 h and the plates were agitated every 15 minutes. Compounds were diluted in assay media consisting of MEM with Earl's salts supplemented with 2% FBS, glutamine, penicillin, and gentamycin. Diluted drug was added to duplicate wells and the plates were incubated for various times, depending on the virus used. For HSV-1 and -2, the monolayers were then stained with 1% crystal violet in 20% methanol and the unbound dye removed by washing with dH20. For all other assays, the cell monolayer was stained with 1% Neutral Red solution for 4-6 h then the stain was aspirated and the cells were washed with PBS.

HSV2 strain G = assay: HSV2 primary assay, strain G, HFF cells; format: cell-based, herpes simplex virus 2
Protocol: as §1, §2

[1] = tested on: Epstein-Barr virus Akata strain; assay: Epstein-Barr primary assay, Akata strain, Akata cells; format: cell-based
[2] = Cytotoxicity concurrent with EBV primary assay; settings: human, Akata cells without virus induction
HSV1 strain E-377 = assay: HSV1 primary assay, strain E-377, HFF cells; format: cell-based, Herpes Simplex Virus 1
Protocol: as §1, §2

[3] = Cytotoxicity concurrent with Adenovirus primary assay; format: cell-based; settings: human
[4] = Cytotoxicity concurrent with HCMV AD169 primary assay; format: cell-based, human; settings: human
[5] = Cytotoxicity concurrent with HSV1 E-377 primary assay; format: cell-based; settings: human
Protocol: as §1

HCMV strain AD169 = assay: HCMV primary assay (CPE), strain AD169, HFF cells; format: cell-based, Human Cytomegalovirus
Protocol: The antiviral activity of the compound against HCMV in the described Primary assay was measured by treating primary Human foreskin fibroblast (HFF) cells infected with HCMV with a range of compound concentrations—description of methods for this assay can be found in section 1.3.2.1. […] . Additional tested assay parameters in this Primary assay can be found in Table 3.2.1 and include EC90, S150, and S190 values—descriptions of those data points can be found in section 3.2.1.

[6] = Cytotoxicity concurrent with HSV2 primary assay; format: cell-based; settings: human
Protocol: as §1

[7] = Cytotoxicity concurrent with VZV Ellen primary assay; format: cell-based; settings: human
Protocol: as §1

[8] = tested on: Adenovirus Adenoid75 strain; assay: Adenovirus primary assay, Adenoid75 strain, HFF cells; format: cell-based; settings: unidentified adenovirus
[9] = Metabolic stability in mice liver microsomes; settings: mice liver microsomes, 1 μM compound, 1 mM NADPH, 60 min
Protocol: Potassium phosphate buffer (Kphos) was prepared by adding 0.647 g potassium phosphate monobasic (KH2PO4) and 3.527 g potassium phosphate dibasic (K2HPO4) to 400 mL of Milli-Q water. pH of the buffer was adjusted to 7.4 and volume was made up to 500 mL.
Stock solutions of the test compounds were prepared in DMSO at a concentration of 1 mM.
To this microsomal mix 1.42 μL (1 mM) of test compound and positive control were spiked, from this mix 70 μL was transferred to 96 well plate and pre-incubated at 37° C. for 5 min. […] The plates were centrifuged at 4000 RPM for 15 min and 100 μL aliquots were submitted for analysis by LC-MS/MS.
Samples were monitored for parent compound disappearance in MRM mode using LC-MS/MS. The LC-MS/MS conditions and MRM chromatogram will be provided as per client request.
The peak area ratios of analyte versus internal standard were used to calculate the % remaining at the end of 60 minutes in presence NADPH.

[10] = Human alphaherpesvirus 3, VZV primary assay, strain Ellen, cell line HFF, read-out: EC50
[11] = Human alphaherpesvirus 3, VZV primary assay, strain Ellen, cell line HFF, read-out: EC90
[12] = Human alphaherpesvirus 2, HSV2 primary assay, strain G, HFF cells, read-out: EC50
[13] = Human alphaherpesvirus 2, HSV2 primary assay, strain G, HFF cells, read-out: EC90
[14] = human gammaherpesvirus 4, Epstein-Barr primary assay, Akata strain, Akata cells, read-out: EC50
[15] = human gammaherpesvirus 4, Epstein-Barr primary assay, Akata strain, Akata cells, read-out: EC90
[16] = Human alphaherpesvirus 1, HSV1 primary assay, strain E-377, HFF cells, read-out: EC50
[17] = Human alphaherpesvirus 1, HSV1 primary assay, strain E-377, HFF cells, read-out: EC90
[18] = Human betaherpesvirus 5, HCMV primary assay, virus strain AD169, HFF cells, read-out: EC50
[19] = Human betaherpesvirus 5, HCMV primary assay, virus strain AD169, HFF cells, read-out: EC90
[20] = Adenovirus primary assay, HFF cells, Adenoid75 strain, read-out: EC50
[21] = Adenovirus primary assay, HFF cells, Adenoid75 strain, read-out: EC90
[22] = Human betaherpesvirus 5, AD169, HFF
[23] = human gammaherpesvirus 4, Akata

Row | Compound | CC50 at 72 h [2] [µM] | EC50 (HSV1 strain E-377; [16]) [µM] | EC90 (HSV1 strain E-377; [17]) [µM] | CC50 [3] [µM] | CC50 ([4]; CC50) [µM] | CC50 [5] [µM] | EC50 (HCMV strain AD169; [18]) [µM] | EC90 (HCMV strain AD169; [19]) [µM] | CC50 [6] [µM] | CC50 [7] [µM] | also measured
1 | CN(C)CC1CCC(Nc2cc3c4ccc(F)cc4nn3cn2)CC1 (stereo not drawn) [VKT-008] | 50 | 50 | 50 | 48.6 | 38.8 | 50 | 10 | 10 | 50 | 37.2 | EC50 (VZV strain Ellen; [10]): 10 µM; EC90 (VZV strain Ellen; [11]): 10 µM; EC50 (HSV2 strain G; [12]): 50 µM; EC90 (HSV2 strain G; [13]): 50 µM; EC50 [1, 14]: 8.16 µM; EC90 [1, 15]: 44 µM; EC50 [8, 20]: 10 µM; EC90 [8, 21]: 10 µM
2 | CCN1CCC(Nc2cc3c4ccc(F)cc4nn3cn2)CC1 [VKT-025] |  |  |  |  | 48.1 |  | 10 | 10 |  |  | 
3 | N[C@@H]1CC[C@H](Nc2cc3c4ccc(F)cc4nn3cn2)C1 [VKT-034] |  | 10 | 10 |  |  | 18.7 |  |  |  |  | % Remaining at 60 min [9]: 81%
4 | N[C@H]1CC[C@H](Nc2cc3c4ccc(F)cc4nn3cn2)C1 [VKT-036] |  | 10 | 10 |  |  | 29.4 |  |  |  |  | % Remaining at 60 min [9]: 82%
5 | CC(C)(C)OC(=O)N[C@H]1CCC(Nc2cc3c4ccc(F)cc4nn3cn2)C1 (stereo partly drawn) [VKT-035] | 31.9 | 10 | 10 | 17.5 | 8.14 | 15.9 | 2 | 2 | 17.7 | 7.6 | EC50 (VZV strain Ellen; [10]): 2 µM; EC90 (VZV strain Ellen; [11]): 2 µM; EC50 (HSV2 strain G; [12]): 10 µM; EC90 (HSV2 strain G; [13]): 10 µM; EC50 [1, 14]: 10 µM; EC90 [1, 15]: 10 µM; EC50 [8, 20]: 10 µM; EC90 [8, 21]: 10 µM
6 | CC1CC(Nc2cc3c4ccc(F)cc4nn3cn2)CCO1 (stereo not drawn) [VKT-011] |  |  |  |  | 38.6 |  | 10 | 10 |  |  | 
7 | Fc1ccc2c(c1)nn1cnc(NC3CCSCC3)cc21 [VKT-017] | 50 | 50 | 50 | 46.7 | 21.4 | 50 | 10 | 10 | 50 | 37.1 | EC50 (VZV strain Ellen; [10]): 10 µM; EC90 (VZV strain Ellen; [11]): 10 µM; EC50 (HSV2 strain G; [12]): 50 µM; EC90 (HSV2 strain G; [13]): 50 µM; EC50 [1, 14]: 23.4 µM; EC90 [1, 15]: 41.5 µM; EC50 [8, 20]: 10 µM; EC90 [8, 21]: 10 µM
8 | CN(C(=O)OC(C)(C)C)C1CCC(Nc2cc3c4ccc(F)cc4nn3cn2)CC1 (stereo not drawn) [VKT-005] | 39.4 | 10 | 10 | 3.81 | 1.48 | 16 | 0.4 | 0.4 | 7.94 | 1.48 | EC50 (VZV strain Ellen; [10]): 0.4 µM; EC90 (VZV strain Ellen; [11]): 0.4 µM; EC50 (HSV2 strain G; [12]): 2 µM; EC90 (HSV2 strain G; [13]): 2 µM; EC50 [1, 14]: 10 µM; EC90 [1, 15]: 10 µM; EC50 [8, 20]: 2 µM; EC90 [8, 21]: 2 µM
9 | OCCC1CCC(Nc2cc3c4ccc(F)cc4nn3cn2)CC1 (stereo not drawn) [VKT-032] |  |  |  |  |  |  |  |  |  |  | CC50 ([4]; HCMV primary assay, HFF cells, read-out: CC50): 26.2 µM; EC50 (HCMV strain AD169; [22]): 10 µM; EC90 (HCMV strain AD169; [22]): 10 µM
10 | Fc1ccc2c(c1)nn1cnc(NC3CCNCC3)cc21 [VKT-319, 7-fluoro-N-(piperidin-4-yl)pyrimido[1,6-b]indazol-3-amine] |  |  |  |  | 37.5 |  | 10 | 10 |  |  | 
11 | CN(C)C1CCC(Nc2cc3c4ccc(F)cc4nn3cn2)CC1 (stereo not drawn) [VKT-007] |  | 10 | 10 |  |  | 16.1 |  |  |  |  | % Remaining at 60 min [9]: 54%
12 | CN1CCC(Nc2cc3c4ccc(F)cc4nn3cn2)CC1 [VKT-023] | 50 |  |  | 50 | 46 | 50 |  |  | 50 | 44.7 | EC50 (VZV strain Ellen; Human alphaherpesvirus 3, HFF): 10 µM; EC90 (VZV strain Ellen; Human alphaherpesvirus 3, HFF): 10 µM; EC50 (HSV2 strain G; Human alphaherpesvirus 2, HFF): 50 µM; EC90 (HSV2 strain G; Human alphaherpesvirus 2, HFF): 50 µM; EC50 [1, 23]: 29.5 µM; EC90 [1, 23]: 50 µM; EC50 (HSV1 strain E-377; Human alphaherpesvirus 1, HFF): 50 µM; EC90 (HSV1 strain E-377; Human alphaherpesvirus 1, HFF): 50 µM; EC50 (HCMV strain AD169; [22]): 10 µM; EC90 (HCMV strain AD169; [22]): 10 µM; EC50 ([8]; HFF): 50 µM; EC90 ([8]; HFF): 50 µM
13 | CN(CC1CCC(N(C)c2cc3c4ccc(F)cc4nn3cn2)CC1)C(=O)OC(C)(C)C (stereo not drawn) [VKT-009-B] |  |  |  |  | 0.17 |  | 0.08 | 0.08 |  |  | 
14 | CN(C)CC(=O)N1CCC(Nc2cc3c4ccc(F)cc4nn3cn2)CC1 [VKT-028] |  |  |  |  | 32 |  | 10 | 10 |  |  | 
15 | NCC1CCC(Nc2cc3c4ccc(F)cc4nn3cn2)CC1 (stereo not drawn) [VKT-002] | 6.69 | 10 | 10 | 21.2 | 7.42 | 20.8 | 2 | 2 | 24.4 | 7.9 | EC50 (VZV strain Ellen; [10]): 2 µM; EC90 (VZV strain Ellen; [11]): 2 µM; EC50 (HSV2 strain G; [12]): 10 µM; EC90 (HSV2 strain G; [13]): 10 µM; EC50 [1, 14]: 1.78 µM; EC90 [1, 15]: 2 µM; EC50 [8, 20]: 4.44 µM; EC90 [8, 21]: 10 µM
16 | CC(C)(C)OC(=O)NCC1CCC(Nc2cc3c4ccc(F)cc4nn3cn2)CC1 (stereo not drawn) [VKT-001] |  |  |  |  | 6.19 |  | 2 | 2 |  |  | 
17 | CNC1CCC(Nc2cc3c4ccc(F)cc4nn3cn2)CC1 (stereo not drawn) [VKT-006] | 33.5 | 10 | 10 | 30.5 | 32.5 | 38.5 | 10 | 10 | 42.8 | 27.2 | EC50 (VZV strain Ellen; [10]): 10 µM; EC90 (VZV strain Ellen; [11]): 10 µM; EC50 (HSV2 strain G; [12]): 10 µM; EC90 (HSV2 strain G; [13]): 10 µM; EC50 [1, 14]: 8.32 µM; EC90 [1, 15]: 10 µM; EC50 [8, 20]: 10 µM; EC90 [8, 21]: 10 µM
18 | CN(c1cc2c3ccc(F)cc3nn2cn1)C1CCC(CNC(=O)OC(C)(C)C)CC1 (stereo not drawn) [VKT-009-A] |  |  |  |  | 0.57 |  | 0.4 | 0.4 |  |  | 
19 | Fc1ccc2c(c1)nn1cnc(NC3COCCOC3)cc21 [VKT-016] |  |  |  |  | 48.5 |  | 10 | 10 |  |  | 
20 | CNC(=O)CN1CCC(Nc2cc3c4ccc(F)cc4nn3cn2)CC1 [VKT-031] |  |  |  |  | 50 |  | 50 | 50 |  |  | 
21 | CC1CC(Nc2cc3c4ccc(F)cc4nn3cn2)CC(C)O1 (stereo not drawn) [VKT-013] |  |  |  |  | 48.1 |  | 10 | 10 |  |  | 
